Assay results taken from patent US5137887A, “Salts of optically active 4-hydroxy-8(3-lower alkoxy-4-phenylsulfinylphenyl)pyrazolo(1,5-A)-1,3,5- triazines and a process for production thereof” (Otsuka Pharmaceutical Factory, Inc., priority 1989, dated 1992).
Where two headings read alike, the source gives them in different places.

Tests used:
Solubility test = assay type: physicochemical; settings: shaken at 25° C., HPLC
Experimental: Solubility tests with the above respective samples using water (distilled water for injection) and physiological saline as solvents were performed as follows.
Using an incubator (Taiyo Kagaku Kogyo, M-100), the tube was shaken at 25° C. After 4 hours, the content was filtered through a 0.45 μm filter and the filtrate was diluted 100-fold with mobile phase to prepare a test solution. Separately, 40.0 mg of Sample I (racemic form) was accurately weighed and made up with water to make exactly 200 ml. Then, 1 ml of this solution was accurately taken and diluted with mobile phase to make exactly 20 ml (10 μg/ml) of standard solution. Using the above test solutions and the standard solution, the solubilities of the respective samples were determined.

[1] = test system: xanthine dehydrogenase activity in the liver; test: Xanthine dehydrogenase inhibitory activity test (enzyme activity in liver after oral administration); assay type: in vivo; settings: male ICR rats, 5 mg/kg orally in 0.5% CMC; for Enzymatic activity in the liver isolated after 4 hr.: liver excised 4 hours after administration; for Enzymatic activity in the liver isolated after 8 hr.: liver excised 8 hours after administration
Experimental: Xanthine dehydrogenase inhibitory activity test
The test was performed using male ICR […] (aged 6 weeks, b.w. 28.0-40.6 g). The compounds of the invention as obtained in Example 2 were respectively suspended in 0.5% carboxymethylcellulose (CMC) solution and the suspensions were administered orally at the rate of 10 ml/kg (Test Group 1 and Test Group 2). The compound of the invention and its dosage used in each test group are shown below.
After 4 and 8 hours from the administration, animals in each group were sacrified, the liver was excised, and the xanthine dehydrogenase activity in the liver was assayed by the following general procedure.
Thus, a homogenate of the liver was diluted 5-fold with 100 mM Tris-HCl buffer (hereinafter referred to merely as buffer). Then, 50 μl of this dilution, 25 μl of a buffer dilution of NAD^+ (20 mM) and 25 μl of a buffer solution of potassium oxonate were added to 300 μl of the buffer (the concentrations of NAD^+ and potassium oxonate in the total solution were 1 mM each) and the mixture was incubated at 25° C. for 5 minutes. This incubate was centrifuged and the uric acid in the supernatant was estimated by high performance liquid chromatography (HPLC). The value was taken as the pre-treatment baseline.
On the other hand, to a preincubate obtained in the same manner as above was added 100 μl of a buffer solution of xanthine (1 mM) and the mixture was incubated at 25° C. for 5 minutes. The reaction was stopped with 50 μl of 6M perchloric acid and the reaction mixture was centrifuged in the same manner as above. The supernatant was neutralized with an aqueous solution of sodium dihydrogen phosphate and uric acid produced was assayed by HPLC. The value was taken as the post-treatment value.
From the difference between the above post-treatment value and pre-treatment baseline value of uric acid, xanthine dehydrogenase activity was determined.

[2] = water, water (distilled water for injection), read-out: Solubility in water
[3] = physiological saline, read-out: Solubility in physiological saline

With `COc1cc(-c2cnn3c([O-])ncnc23)ccc1[S+]([O-])c1ccccc1.O.[Na+]` (racemic) [Sample I, Sodium (±)-8-(3-methoxy-4-phenylsulfinylphenyl)pyrazolo[1,5-a]-1,3,5-triazine-4-olate monohydrate, reference compound] the “Solubility in physiological saline” value (Solubility test; physiological saline, 4 hours, listed as sodium salt of the racemic compound, monohydrate, 240 min) was “about 0.08 w/w %”, the “Solubility in physiological saline” value (Solubility test; physiological saline, 4 hours, monohydrate, 240 min) was 0.0083 w/w % and the Solubility in water (Solubility test; water (distilled water for injection), 4 hours, listed as sodium salt of the above racemic compound, monohydrate, 240 min) was “about 0.2 w/w %”. For the same molecule, the solubility at 4 h (Solubility test; [2]) was 2.21 mg/mL.
With `COc1cc(-c2cnn3c([O-])ncnc23)ccc1[S+]([O-])c1ccccc1.O.O.[Na+]` (single isomer, unassigned) [Sample II, Sodium (-)-8-(3-methoxy-4-phenylsulfinylphenyl)pyrazolo[1,5-a]-1,3,5-triazine-4-olate dihydrate] the “Enzymatic activity in the liver isolated after 4 hr.” value ([1]; control 152 ± 21, listed as Test group 1, dihydrate) was 7 ± 4 mU/g, the “Enzymatic activity in the liver isolated after 8 hr.” value ([1]; control 137 ± 31, listed as Test group 1, dihydrate) was 17 ± 7 mU/g and the solubility at 4 h (Solubility test; [3]) was ≥ 500 mg/mL. The solubility at 4 h (Solubility test; [2]) was ≥ 500 mg/mL.
In the case of `COc1cc(-c2cnn3c([O-])ncnc23)ccc1[S+]([O-])c1ccccc1.O.O.[Na+]` (single isomer, unassigned) [Sample III, Sodium (+)-8-(3-methoxy-4-phenylsulfinylphenyl)pyrazolo[1,5-a]-1,3,5-triazine-4-olate dihydrate], the “Enzymatic activity in the liver isolated after 4 hr.” value ([1]; control 152 ± 21, listed as Test group 2, dihydrate) is reported as 33 ± 16 mU/g and the “Enzymatic activity in the liver isolated after 8 hr.” value ([1]; control 137 ± 31, listed as Test group 2, dihydrate) is reported as 22 ± 10 mU/g.
In the case of `COc1cc(-c2cnn3c(O)ncnc23)ccc1[S+]([O-])c1ccccc1` (single isomer, unassigned) [Sample IV, Calcium bis[(-)-8-(3-methoxy-4-phenylsulfinylphenyl)pyrazolo[1,5-a]-1,3,5-triazine-4-olate] dihydrate], the solubility at 4 h (Solubility test; [3]) is reported as ≥ 500 mg/mL and the solubility at 4 h (Solubility test; water (distilled water for injection), read-out: Solubility in water) is reported as ≥ 500 mg/mL.
